From the supplement of paper PMC10307832

Columns and labels:
Assay in all cases: relative viability (nuclei count vs DMSO), 5 days (fraction); higher = more cells survive
Lapatinib + Olaparib = compound: CS(=O)(=O)CCNCc1ccc(-c2ccc3ncnc(Nc4ccc(OCc5cccc(F)c5)c(Cl)c4)c3c2)o1 [Lapatinib] + O=C(c1cc(Cc2n[nH]c(=O)c3ccccc23)ccc1F)N1CCN(C(=O)C2CC2)CC1 [Olaparib] (partner 8 µM)
Summary of the method: (§1)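 Relative viability was taken as the ratio of nuclei in treated wells to nuclei in vehicle wells. Lung cancer cell lines in 1536-well plates received compounds by pin tool one day after seeding, either one drug alone or a fixed anchor-drug dose plus five library-drug doses (not always all listed) in √10 steps. Nuclei were counted on 4× images after 5 days of treatment, and values are medians of duplicate plates.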

Lapatinib + OSI-027 = compound: CS(=O)(=O)CCNCc1ccc(-c2ccc3ncnc(Nc4ccc(OCc5cccc(F)c5)c(Cl)c4)c3c2)o1 [Lapatinib] + COc1cccc2cc(-c3nc([C@H]4CC[C@H](C(=O)O)CC4)n4ncnc(N)c34)[nH]c12 [OSI-027] (partner 0.5 µM)
Summary of the method: as §1

Lapatinib + Trametinib = compound: CS(=O)(=O)CCNCc1ccc(-c2ccc3ncnc(Nc4ccc(OCc5cccc(F)c5)c(Cl)c4)c3c2)o1 [Lapatinib] + CC(=O)Nc1cccc(-n2c(=O)n(C3CC3)c(=O)c3c(Nc4ccc(I)cc4F)n(C)c(=O)c(C)c32)c1 [Trametinib] (partner 0.02 µM)
Summary of the method: as §1

Lapatinib + Linsitinib = compound: CS(=O)(=O)CCNCc1ccc(-c2ccc3ncnc(Nc4ccc(OCc5cccc(F)c5)c(Cl)c4)c3c2)o1 [Lapatinib] + C[C@]1(O)C[C@@H](c2nc(-c3ccc4ccc(-c5ccccc5)nc4c3)c3c(N)nccn32)C1 [Linsitinib] (partner 1 µM)
Summary of the method: as §1

Cell Line | relative viability (Lapatinib + Olaparib; first compound 0.06325 µM) | relative viability (Lapatinib + Olaparib; first compound 0.2 µM) | relative viability (Lapatinib + Olaparib; first compound 0.6325 µM) | relative viability (Lapatinib + Olaparib; first compound 2 µM) | relative viability (Lapatinib + OSI-027; first compound 0.06325 µM) | relative viability (Lapatinib + OSI-027; first compound 0.2 µM) | relative viability (Lapatinib + OSI-027; first compound 0.6325 µM) | relative viability (Lapatinib + OSI-027; first compound 2 µM) | relative viability (Lapatinib + Trametinib; first compound 0.06325 µM) | relative viability (Lapatinib + Trametinib; first compound 0.2 µM) | relative viability (Lapatinib + Trametinib; first compound 0.6325 µM) | relative viability (Lapatinib + Trametinib; first compound 2 µM) | relative viability (Lapatinib + Linsitinib; first compound 0.06325 µM) | relative viability (Lapatinib + Linsitinib; first compound 0.2 µM) | relative viability (Lapatinib + Linsitinib; first compound 0.6325 µM) | relative viability (Lapatinib + Linsitinib; first compound 2 µM) | relative viability (Lapatinib + Linsitinib; first compound 0.02 µM) | relative viability (Lapatinib + OSI-027; first compound 0.02 µM) | relative viability (Lapatinib + Trametinib; first compound 0.02 µM) | relative viability (Lapatinib + Olaparib; first compound 0.02 µM)
NCI-H522 | 0.467 | 0.575 | 0.572 | 0.518 | 0.565 | 0.658 | 0.681 | 0.589 | 0.636 | 0.688 | 0.809 | 0.655 |  |  |  |  |  |  |  | 
NCI-H650 | 0.355 | 0.372 | 0.397 | 0.337 | 0.411 | 0.468 | 0.505 | 0.543 | 0.78 | 0.965 | 0.955 | 0.927 | 0.841 | 0.793 | 0.567 | 0.875 |  |  |  | 
NCI-H460 | 0.406 | 0.421 | 0.41 | 0.262 | 0.438 | 0.481 | 0.533 | 0.477 | 0.0952 | 0.282 | 0.171 | 0.0626 | 0.776 | 0.843 | 0.573 | 0.674 | 0.736 | 0.544 | 0.0377 | 
HCC-827 | 0.656 | 0.533 | 0.678 | 0.549 | 0.7 | 0.691 | 0.71 | 0.661 | 0.487 | 0.536 | 0.517 | 0.408 | 0.986 | 0.928 | 1.05 | 0.936 | 0.944 | 0.54 | 0.479 | 0.591
NCI-H647 | 0.412 | 0.506 | 0.523 | 0.489 | 0.488 | 0.527 | 0.689 | 0.642 | 0.42 | 0.45 | 0.641 | 0.224 | 1.17 | 1.37 | 1.1 | 0.995 | 1.21 | 0.635 | 0.394 | 0.536
SW 1573 | 0.443 | 0.519 | 0.444 | 0.522 | 0.379 | 0.612 | 0.735 | 0.635 | 0.577 | 0.527 | 0.606 | 0.515 | 0.82 | 0.76 | 0.784 | 0.794 | 0.843 | 0.626 |  | 0.401
NCI-H2170 | 0.483 | 0.501 | 0.459 | 0.118 | 0.459 | 0.64 | 0.41 | 0.245 | 0.82 | 0.792 | 0.683 | 0.238 |  |  |  |  |  | 0.459 | 0.874 | 0.564
NCI-H358 | 0.476 | 0.385 | 0.377 | 0.205 | 0.285 | 0.439 | 0.285 | 0.215 | 0.108 | 0.122 | 0.123 | 0.121 |  | 0.512 | 0.329 | 0.277 | 0.548 | 0.567 | 0.135 | 0.535
COR-L 105 | 0.657 | 0.647 | 0.669 | 0.406 | 0.362 | 0.449 | 0.413 | 0.269 | 0.419 | 0.402 | 0.363 | 0.393 | 0.772 | 0.954 | 0.703 | 0.272 | 0.796 | 0.638 | 0.433 | 0.603
PC-3 [JPC-3] | 1.09 |  | 1.16 | 0.883 | 0.624 | 0.725 | 0.756 | 0.565 | 0.675 |  | 0.721 | 0.412 | 1.01 | 0.993 | 0.994 | 0.873 |  | 0.73 |  | 
NCI-H1993 |  | 0.901 | 0.965 | 0.661 |  | 0.593 | 0.586 | 0.652 |  | 0.57 | 0.496 | 0.477 |  | 0.816 | 0.752 | 0.639 | 0.743 | 0.557 | 0.458 | 0.961
NCI-H1734 | 0.54 | 0.62 | 0.593 | 0.586 | 0.375 | 0.579 | 0.721 | 0.507 | 0.548 | 0.626 | 0.691 | 0.721 | 0.729 | 0.946 | 0.858 | 0.745 |  | 0.615 |  | 
ChaGo-K-1 | 0.471 | 0.478 | 0.431 | 0.396 | 0.391 | 0.585 | 0.53 | 0.462 | 0.918 | 0.9 | 0.868 | 0.894 |  |  |  |  |  | 0.341 | 0.868 | 0.418
LU99A | 0.282 | 0.276 | 0.237 | 0.234 | 0.244 | 0.297 | 0.293 | 0.284 | 0.453 | 0.448 | 0.511 | 0.536 | 0.511 | 0.581 | 0.565 | 0.561 | 0.534 | 0.283 | 0.532 | 0.302
ABC-1 | 0.882 |  | 0.781 | 0.9 | 0.321 | 0.706 | 0.702 | 0.477 |  |  |  |  | 0.813 | 0.871 | 0.773 | 0.504 |  | 0.532 |  | 0.983
